Data: patent US20080009418A1, “Selective Inhibitors” (Alchemia LTD., priority 2004, published 2008)

Key:
Mouse urotensin (mUR2) = target: T1, Mouse urotensin (mUR2) (Mus musculus, UniProt Q8VIH9); assay: Radioligand binding, mouse urotensin mUR2 membranes, FlashPlate, [125I]-Urotensin II; conditions: compound at 10 μM, [125I]-Urotensin II
T1 construct: purchased Perkin Elmer Biosignal
T1 sequence (Q8VIH9 1-385): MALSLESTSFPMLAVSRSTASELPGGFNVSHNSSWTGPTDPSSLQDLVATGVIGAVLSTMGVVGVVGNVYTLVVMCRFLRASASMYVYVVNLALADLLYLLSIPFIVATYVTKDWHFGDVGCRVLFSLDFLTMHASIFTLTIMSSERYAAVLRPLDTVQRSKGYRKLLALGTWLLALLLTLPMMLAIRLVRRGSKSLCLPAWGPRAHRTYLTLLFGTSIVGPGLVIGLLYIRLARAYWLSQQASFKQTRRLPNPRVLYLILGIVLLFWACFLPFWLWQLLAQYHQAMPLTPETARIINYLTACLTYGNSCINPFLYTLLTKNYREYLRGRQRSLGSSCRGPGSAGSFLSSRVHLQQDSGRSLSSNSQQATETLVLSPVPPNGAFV
In short: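 Cloned mouse urotensin (mUR2) receptor membranes from Perkin Elmer Biosignal were immobilized in FlashPlate microplates using a proprietary coating. Each well got 19.5 μl buffer, then 0.5 μl of DMSO, reference ligand, or compound. Adding 5 μl of [125I]-Urotensin II, diluted to 5× final concentration in binding buffer, started binding. Plates were sealed with TopSeal-A and incubated 1 hour at room temperature in the dark. Wells were counted for 30 seconds each on a TopCount after a 60-second delay, and percentage inhibition was calculated.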

Human κ-Opioid (KOP) = target: T2, Human κ-Opioid (KOP) (Homo sapiens, UniProt P41145); assay: Radioligand binding, human κ-opioid (KOP) membranes, filtration, [3H]-Diprenorphine; conditions: compound at 10 μM, [3H]-Diprenorphine
T2 construct: purchased Perkin Elmer Biosignal
In short: (§1)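 Filtration binding on cloned human receptor membranes (1 Unit/well), [125I]-Substance P for NK1 and [3H]-Diprenorphine for KOP, 1 h at room temperature. Filters PEI-presoaked, washed with cold 50 mM Tris-HCl pH 7.4, counted by scintillation; percent inhibition calculated, reference ligand defining non-specific binding.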

[1] = target: T3, Human melanin-concentrating hormone (MCH1) (Homo sapiens, UniProt Q99705); assay: Radioligand binding, human melanin-concentrating hormone MCH1 membranes, FlashPlate, [125I]-S36057; conditions: compound at 10 μM; for A6: inhibition of radioligand binding, human melanin-concentrating hormone (MCH1): [125I]-S36057
T3 construct: purchased Perkin Elmer Biosignal
In short: (§2)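 Cloned human receptor membranes were coated onto FlashPlate wells and incubated with radioligand and compound (added from a 0.5 mM DMSO daughter plate) for 1 hour at room temperature in the dark. Scintillation counting gave percent inhibition, with DMSO defining total and reference ligand defining non-specific binding.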

Human opioid (ORL1) = target: T4, Human opioid (ORL1) (Homo sapiens, UniProt P41146); assay: Radioligand binding, human opioid ORL1 membranes, FlashPlate, [125I]-Nociceptin; conditions: compound at 10 μM, [125I]-Nociceptin
T4 construct: purchased Perkin Elmer Biosignal
In short: as §2

Human δ-opioid (DOP) = target: T5, Human δ-opioid (DOP) (Homo sapiens, UniProt P41143); assay: Radioligand binding, human δ-opioid (DOP) membranes, FlashPlate, [3H]-Bremazocine; conditions: compound at 10 μM, [3H]-Bremazocine
T5 construct: purchased Perkin Elmer Biosignal
In short: as §2

Human melanocortin (MC5) = target: T6, Human melanocortin (MC5) (Homo sapiens, UniProt P33032); assay: Radioligand binding, human melanocortin MC5 membranes, FlashPlate, [125I]-NDP-αMSH; conditions: compound at 10 μM, [125I]-NDP-αMSH
T6 construct: purchased Perkin Elmer Biosignal
In short: as §2

[2] = target: T7, Human neuropeptide Y (NPY-Y1) (Homo sapiens, UniProt P25929); assay: Radioligand binding, human neuropeptide Y NPY-Y1 membranes, FlashPlate, [125I]-PYY; conditions: compound at 10 μM, [125I]-PYY
T7 construct: purchased Perkin Elmer Biosignal
T7 sequence (P25929 1-384): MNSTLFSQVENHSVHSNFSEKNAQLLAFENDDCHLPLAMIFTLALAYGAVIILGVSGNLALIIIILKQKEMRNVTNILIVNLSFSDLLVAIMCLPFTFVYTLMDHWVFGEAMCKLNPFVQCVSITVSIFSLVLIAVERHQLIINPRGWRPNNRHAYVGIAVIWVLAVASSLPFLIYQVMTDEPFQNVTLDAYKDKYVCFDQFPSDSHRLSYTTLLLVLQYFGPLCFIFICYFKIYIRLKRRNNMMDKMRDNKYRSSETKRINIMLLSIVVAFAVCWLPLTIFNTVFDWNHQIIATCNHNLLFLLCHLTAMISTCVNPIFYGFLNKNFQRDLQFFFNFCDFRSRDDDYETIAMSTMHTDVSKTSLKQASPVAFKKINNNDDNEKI
In short: as §2

Human μ-opioid (MOP) = target: T8, Human μ-opioid (MOP) (Homo sapiens, UniProt P35372); assay: Radioligand binding, human μ-opioid (MOP) membranes, FlashPlate, [3H]-Naloxone; conditions: compound at 10 μM, [3H]-Naloxone
T8 construct: purchased Perkin Elmer Biosignal
In short: as §2

Human Melanocortin (MC4) = target: T9, Human Melanocortin (MC4) (Homo sapiens, UniProt P32245); assay: Radioligand binding, human melanocortin MC4 membranes, FlashPlate, [125I]-NDP-αMSH; conditions: compound at 10 μM, [125I]-NDP-αMSH
T9 construct: purchased Perkin Elmer Biosignal
In short: as §2

Human neurokinin (NK1) = target: T10, Human neurokinin (NK1) (Homo sapiens, UniProt P25103); assay: Radioligand binding, human neurokinin NK1 membranes, filtration, [125I]-Substance P; conditions: compound at 10 μM, [125I]-Substance P
T10 construct: purchased Perkin Elmer Biosignal
In short: as §1

Human Melanocortin (MC3) = target: T11, Human Melanocortin (MC3) (Homo sapiens, UniProt P41968); assay: Radioligand binding, human melanocortin MC3 membranes, FlashPlate, [125I]-NDP-αMSH; conditions: compound at 10 μM, [125I]-NDP-αMSH
T11 construct: purchased Perkin Elmer Biosignal
In short: as §2

T9 sequence (P32245 whole entry): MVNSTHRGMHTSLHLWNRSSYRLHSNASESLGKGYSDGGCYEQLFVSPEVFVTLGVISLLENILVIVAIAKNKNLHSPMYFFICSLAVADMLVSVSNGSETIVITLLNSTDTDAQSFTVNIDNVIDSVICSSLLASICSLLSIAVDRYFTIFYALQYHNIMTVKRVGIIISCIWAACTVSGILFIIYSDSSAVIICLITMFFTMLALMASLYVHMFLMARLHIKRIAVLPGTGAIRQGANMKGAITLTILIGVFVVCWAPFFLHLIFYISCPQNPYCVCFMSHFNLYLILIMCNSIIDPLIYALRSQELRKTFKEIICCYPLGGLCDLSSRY
T5 sequence (P41143 whole entry): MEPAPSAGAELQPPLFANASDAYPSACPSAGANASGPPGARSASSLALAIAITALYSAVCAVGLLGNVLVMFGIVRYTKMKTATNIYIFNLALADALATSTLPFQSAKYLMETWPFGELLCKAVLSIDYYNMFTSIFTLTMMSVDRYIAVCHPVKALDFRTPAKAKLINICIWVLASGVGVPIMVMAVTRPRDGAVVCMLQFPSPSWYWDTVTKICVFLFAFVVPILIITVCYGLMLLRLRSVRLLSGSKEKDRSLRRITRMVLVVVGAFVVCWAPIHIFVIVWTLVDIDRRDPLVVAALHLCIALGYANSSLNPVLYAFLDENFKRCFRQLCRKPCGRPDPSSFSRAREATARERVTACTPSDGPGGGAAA
T6 sequence (P33032 whole entry): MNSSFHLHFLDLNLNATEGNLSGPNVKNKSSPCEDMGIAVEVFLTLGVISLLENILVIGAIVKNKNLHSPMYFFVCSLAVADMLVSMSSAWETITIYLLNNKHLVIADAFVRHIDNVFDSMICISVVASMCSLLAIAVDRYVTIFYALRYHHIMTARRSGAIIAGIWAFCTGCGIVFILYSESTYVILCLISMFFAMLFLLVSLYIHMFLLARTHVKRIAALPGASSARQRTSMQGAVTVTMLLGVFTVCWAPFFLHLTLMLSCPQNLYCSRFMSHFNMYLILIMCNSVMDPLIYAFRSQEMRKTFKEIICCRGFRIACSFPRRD
T11 sequence (P41968 whole entry): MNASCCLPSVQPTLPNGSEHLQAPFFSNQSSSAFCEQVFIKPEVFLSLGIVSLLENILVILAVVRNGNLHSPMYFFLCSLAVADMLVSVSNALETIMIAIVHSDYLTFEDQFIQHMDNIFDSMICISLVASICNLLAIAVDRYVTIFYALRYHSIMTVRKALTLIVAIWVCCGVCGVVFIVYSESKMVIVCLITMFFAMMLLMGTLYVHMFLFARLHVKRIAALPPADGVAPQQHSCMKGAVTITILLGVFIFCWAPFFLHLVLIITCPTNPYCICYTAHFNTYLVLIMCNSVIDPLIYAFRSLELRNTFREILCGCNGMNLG
T8 sequence (P35372 whole entry): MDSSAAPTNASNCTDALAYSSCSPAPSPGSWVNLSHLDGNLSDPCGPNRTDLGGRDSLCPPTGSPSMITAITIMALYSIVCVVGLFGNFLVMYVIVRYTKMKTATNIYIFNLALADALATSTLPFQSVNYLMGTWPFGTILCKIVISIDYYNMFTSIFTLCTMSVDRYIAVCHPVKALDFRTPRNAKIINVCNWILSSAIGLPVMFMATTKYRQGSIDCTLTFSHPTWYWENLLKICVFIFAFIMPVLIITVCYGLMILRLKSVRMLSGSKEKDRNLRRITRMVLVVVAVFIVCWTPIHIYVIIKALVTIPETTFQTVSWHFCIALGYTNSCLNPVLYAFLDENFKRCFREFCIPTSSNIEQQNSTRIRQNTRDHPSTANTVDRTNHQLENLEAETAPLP
T4 sequence (P41146 whole entry): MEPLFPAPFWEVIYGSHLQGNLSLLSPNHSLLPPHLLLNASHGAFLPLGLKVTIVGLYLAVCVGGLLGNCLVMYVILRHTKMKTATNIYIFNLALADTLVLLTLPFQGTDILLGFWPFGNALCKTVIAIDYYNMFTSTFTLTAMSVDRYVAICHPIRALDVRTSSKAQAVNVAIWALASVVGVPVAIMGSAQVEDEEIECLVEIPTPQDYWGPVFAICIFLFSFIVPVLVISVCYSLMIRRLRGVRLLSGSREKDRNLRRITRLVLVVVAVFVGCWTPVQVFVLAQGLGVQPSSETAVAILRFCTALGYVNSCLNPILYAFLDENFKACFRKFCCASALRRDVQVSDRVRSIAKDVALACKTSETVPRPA
T2 sequence (P41145 whole entry): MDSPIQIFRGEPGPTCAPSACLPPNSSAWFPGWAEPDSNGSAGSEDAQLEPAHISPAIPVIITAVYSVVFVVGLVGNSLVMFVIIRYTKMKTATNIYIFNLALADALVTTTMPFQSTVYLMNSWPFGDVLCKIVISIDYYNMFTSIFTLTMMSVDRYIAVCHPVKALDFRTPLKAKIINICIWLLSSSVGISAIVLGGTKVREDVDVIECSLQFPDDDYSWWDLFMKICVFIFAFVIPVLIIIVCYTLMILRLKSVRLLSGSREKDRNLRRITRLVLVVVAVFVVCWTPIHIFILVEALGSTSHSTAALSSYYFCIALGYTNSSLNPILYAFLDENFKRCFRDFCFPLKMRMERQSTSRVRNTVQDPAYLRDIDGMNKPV
T3 sequence (Q99705 whole entry): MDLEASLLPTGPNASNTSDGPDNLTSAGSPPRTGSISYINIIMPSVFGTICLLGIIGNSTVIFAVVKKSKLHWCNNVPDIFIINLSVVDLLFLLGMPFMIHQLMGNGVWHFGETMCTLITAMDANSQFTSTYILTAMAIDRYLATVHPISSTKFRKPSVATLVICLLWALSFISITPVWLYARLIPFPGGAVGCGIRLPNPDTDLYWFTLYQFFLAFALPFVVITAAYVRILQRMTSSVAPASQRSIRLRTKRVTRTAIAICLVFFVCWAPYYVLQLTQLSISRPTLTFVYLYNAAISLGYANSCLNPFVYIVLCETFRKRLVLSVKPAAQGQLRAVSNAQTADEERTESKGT
T10 sequence (P25103 whole entry): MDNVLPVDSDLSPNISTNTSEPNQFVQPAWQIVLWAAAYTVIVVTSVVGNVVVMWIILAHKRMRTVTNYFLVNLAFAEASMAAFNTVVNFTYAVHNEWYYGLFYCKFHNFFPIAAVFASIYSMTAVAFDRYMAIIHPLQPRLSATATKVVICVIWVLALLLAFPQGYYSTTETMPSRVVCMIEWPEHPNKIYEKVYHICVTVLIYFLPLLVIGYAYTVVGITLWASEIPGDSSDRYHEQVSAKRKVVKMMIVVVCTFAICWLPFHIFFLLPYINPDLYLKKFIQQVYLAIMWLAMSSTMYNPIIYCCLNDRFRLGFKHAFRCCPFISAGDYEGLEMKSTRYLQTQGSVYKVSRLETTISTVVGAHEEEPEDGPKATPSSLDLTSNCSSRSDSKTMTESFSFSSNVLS

| SMILES | A11: inhibition of radioligand binding, mouse urotensin (mUR2) (Mouse urotensin (mUR2)) | A2: inhibition of radioligand binding, human κ-opioid (KOP) (Human κ-Opioid (KOP)) | A10: inhibition of radioligand binding, human opioid (ORL1) (Human opioid (ORL1)) | A1: inhibition of radioligand binding, human δ-opioid (DOP) (Human δ-opioid (DOP)) | A9: inhibition of radioligand binding, human neuropeptide Y (NPY-Y1) [2] | A8: inhibition of radioligand binding, human neurokinin (NK1) (Human neurokinin (NK1)) | A3: inhibition of radioligand binding, human melanocortin (MC3) (Human Melanocortin (MC3)) | A6: inhibition of radioligand binding, human melanin-concentrating hormone (MCH1) [1] | A5: inhibition of radioligand binding, human melanocortin (MC5) (Human melanocortin (MC5)) | A7: inhibition of radioligand binding, human μ-opioid (MOP) (Human μ-opioid (MOP)) | A4: inhibition of radioligand binding, human melanocortin (MC4) (Human Melanocortin (MC4)) | also measured |
| --- | --- | --- | --- | --- | --- | --- | --- | --- | --- | --- | --- | --- |
| NCCC(=O)NC1C(OCc2ccc(Cl)cc2)OC(COCc2ccccc2)C(O)C1OCc1ccc2ccccc2c1 (single isomer, unassigned) [compound 480] | − (“−” indicates less than 50% inhibition at 10 μM) | − (“−” indicates less than 50% inhibition at 10 μM) | − (“−” indicates less than 50% inhibition at 10 μM) | − (“−” indicates less than 50% inhibition at 10 μM) | − (“−” indicates less than 50% inhibition at 10 μM) | + (“+” indicates greater than 50% inhibition at 10 μM) | − (“−” indicates less than 50% inhibition at 10 μM) | – | – | – | – | A6: inhibition of radioligand binding, human melanin-concentrating hormone (MCH1) ([1]; 10 µM): + (“+” indicates greater than 50% inhibition at 10 μM); A5: inhibition of radioligand binding, human melanocortin (MC5) (Human melanocortin (MC5); 10 µM): + (“+” indicates greater than 50% inhibition at 10 μM); A7: inhibition of radioligand binding, human μ-opioid (MOP) (Human μ-opioid (MOP); 10 µM): + (“+” indicates greater than 50% inhibition at 10 μM); A4: inhibition of radioligand binding, human melanocortin (MC4) (Human Melanocortin (MC4); 10 µM): + (“+” indicates greater than 50% inhibition at 10 μM) |
| NCCC(=O)NC1C(OCc2ccccc2)OC(COCc2ccc3ccccc3c2)C(O)C1OCc1ccc(Cl)cc1 (stereo not shown) [compound 364] | − (“−” indicates less than 50% inhibition at 10 μM) | − (“−” indicates less than 50% inhibition at 10 μM) | − (“−” indicates less than 50% inhibition at 10 μM) | − (“−” indicates less than 50% inhibition at 10 μM) | − (“−” indicates less than 50% inhibition at 10 μM) | + (“+” indicates greater than 50% inhibition at 10 μM) | + (“+” indicates greater than 50% inhibition at 10 μM) | − (“−” indicates less than 50% inhibition at 10 μM) | + (“+” indicates greater than 50% inhibition at 10 μM) | − (“−” indicates less than 50% inhibition at 10 μM) | + (“+” indicates greater than 50% inhibition at 10 μM) | – |
| NCCCC(=O)NC1C(OCc2ccc3ccccc3c2)OC(COCc2ccc(Cl)cc2)C(O)C1OCc1ccccc1 (single isomer, unassigned) [compound 470] | – | – | – | – | – | – | – | – | – | – | – | A11: inhibition of radioligand binding (Mouse urotensin (mUR2); mouse mUR2 membranes): − (“−” indicates less than 50% inhibition at 10 μM); A2: inhibition of radioligand binding (Human κ-Opioid (KOP); human KOP membranes): − (“−” indicates less than 50% inhibition at 10 μM); A6: inhibition of radioligand binding ([1]; [125I]-S36057, human MCH1 membranes): − (“−” indicates less than 50% inhibition at 10 μM); A10: inhibition of radioligand binding (Human opioid (ORL1); human ORL1 membranes, 10 µM): + (“+” indicates greater than 50% inhibition at 10 μM); A1: inhibition of radioligand binding (Human δ-opioid (DOP); human DOP membranes): − (“−” indicates less than 50% inhibition at 10 μM); A5: inhibition of radioligand binding (Human melanocortin (MC5); human MC5 membranes): + (“+” indicates greater than 50% inhibition at 10 μM); A9: inhibition of radioligand binding ([2]; human NPY-Y1 membranes): − (“−” indicates less than 50% inhibition at 10 μM); A7: inhibition of radioligand binding (Human μ-opioid (MOP); human MOP membranes): − (“−” indicates less than 50% inhibition at 10 μM); A4: inhibition of radioligand binding (Human Melanocortin (MC4); human MC4 membranes, 10 µM): − (“−” indicates less than 50% inhibition at 10 μM); A8: inhibition of radioligand binding (Human neurokinin (NK1); human NK1 membranes): + (“+” indicates greater than 50% inhibition at 10 μM); A3: inhibition of radioligand binding (Human Melanocortin (MC3); human MC3 membranes, 10 µM): − (“−” indicates less than 50% inhibition at 10 μM) |
| COCC1OC(OCCc2ccccc2)C(NC(=O)CCCN)C(OCc2ccc3ccccc3c2)C1O (stereo not shown) [compound 228] | – | – | – | – | – | – | – | – | – | – | – | A11: inhibition of radioligand binding (Mouse urotensin (mUR2); FlashPlate): − (“−” indicates less than 50% inhibition at 10 μM); A2: inhibition of radioligand binding (Human κ-Opioid (KOP); filtration): − (“−” indicates less than 50% inhibition at 10 μM); A6: inhibition of radioligand binding ([1]; [125I]-S36057, FlashPlate): − (“−” indicates less than 50% inhibition at 10 μM); A10: inhibition of radioligand binding (Human opioid (ORL1); FlashPlate): − (“−” indicates less than 50% inhibition at 10 μM); A1: inhibition of radioligand binding (Human δ-opioid (DOP); FlashPlate): − (“−” indicates less than 50% inhibition at 10 μM); A5: inhibition of radioligand binding (Human melanocortin (MC5); FlashPlate): + (“+” indicates greater than 50% inhibition at 10 μM); A9: inhibition of radioligand binding ([2]; FlashPlate): − (“−” indicates less than 50% inhibition at 10 μM); A7: inhibition of radioligand binding (Human μ-opioid (MOP); FlashPlate): − (“−” indicates less than 50% inhibition at 10 μM); A4: inhibition of radioligand binding (Human Melanocortin (MC4); FlashPlate): − (“−” indicates less than 50% inhibition at 10 μM); A8: inhibition of radioligand binding (Human neurokinin (NK1); filtration): + (“+” indicates greater than 50% inhibition at 10 μM); A3: inhibition of radioligand binding (Human Melanocortin (MC3); FlashPlate): − (“−” indicates less than 50% inhibition at 10 μM) |
| CSC1OC(COCc2ccc3ccccc3c2)C(O)C(OCc2ccc3ccccc3c2)C1NC(=O)CCN (stereo not shown) [compound 318] | − (“−” indicates less than 50% inhibition at 10 μM) | − (“−” indicates less than 50% inhibition at 10 μM) | − (“−” indicates less than 50% inhibition at 10 μM) | − (“−” indicates less than 50% inhibition at 10 μM) | − (“−” indicates less than 50% inhibition at 10 μM) | + (“+” indicates greater than 50% inhibition at 10 μM) | − (“−” indicates less than 50% inhibition at 10 μM) | − (“−” indicates less than 50% inhibition at 10 μM) | + (“+” indicates greater than 50% inhibition at 10 μM) | − (“−” indicates less than 50% inhibition at 10 μM) | − (“−” indicates less than 50% inhibition at 10 μM) | – |
